Experimental data as given in a compilation of properties of binary mixtures (doi:10.1016/j.molliq.2022.119944).

Assay: xn = mol fraction of the nth substance listed
Details: 101.3 kPa

C=C[n+]1ccn(CCCC)c1.NCCCC[C@H](N)C(=O)[O-] + O
Details | electrical conductivity [S/m] | viscosity [mPa·s]
293.15 K, x1 = 0.1 | – | 3.29
293.15 K, x1 = 0.7 | – | 95.3
303.15 K, x1 = 0.1 | 1.99 | 2.85
303.15 K, x1 = 0.3 | 2.61 | 5.21
303.15 K, x1 = 0.7 | 1.91 | 74.7
308.15 K, x1 = 0.3 | 2.78 | –
308.15 K, x1 = 0.5 | 3.12 | –
308.15 K, x1 = 0.7 | 2.3 | –
308.15 K, x1 = 0.9 | 1.23 | –
308.15 K, x1 = 1 | 0.154 | –
313.15 K, x1 = 0.1 | 2.36 | 2.38
313.15 K, x1 = 0.7 | 2.54 | 55.38
313.15 K, x1 = 0.9 | 1.34 | 1167
313.15 K, x1 = 1 | 0.176 | 3700
318.15 K, x1 = 0.1 | 2.51 | –
318.15 K, x1 = 0.3 | 3.29 | –
318.15 K, x1 = 0.5 | 3.6 | –
318.15 K, x1 = 0.7 | 2.95 | –
318.15 K, x1 = 0.9 | 1.45 | –
318.15 K, x1 = 1 | 0.195 | –
323.15 K, x1 = 0.1 | 2.78 | 1.97
323.15 K, x1 = 0.3 | 3.56 | 3.57
323.15 K, x1 = 0.7 | 3.28 | 42.7
323.15 K, x1 = 0.9 | 1.62 | 950
323.15 K, x1 = 1 | 0.214 | 1961
333.15 K, x1 = 0.1 | – | 1.58
333.15 K, x1 = 0.3 | – | 2.36
333.15 K, x1 = 0.5 | – | 36.92
333.15 K, x1 = 0.7 | – | 36.62
333.15 K, x1 = 1 | – | 1174
343.15 K, x1 = 0.3 | – | 2.2
343.15 K, x1 = 0.7 | – | 33.98
343.15 K, x1 = 1 | – | 780
353.15 K, x1 = 0.5 | – | 36.44
353.15 K, x1 = 0.7 | – | 33.87
353.15 K, x1 = 0.9 | – | 185
353.15 K, x1 = 1 | – | 560

C=C[n+]1ccn(CCCC)c1.N[C@@H](CO)C(=O)[O-] + O
Details | electrical conductivity [S/m] | viscosity [mPa·s]
293.15 K, x1 = 0.1 | – | 6.68
293.15 K, x1 = 0.5 | – | 95.4
293.15 K, x1 = 0.7 | – | 720
293.15 K, x1 = 0.9 | – | 2700
293.15 K, x1 = 1 | – | 18000
303.15 K, x1 = 0.3 | 2.86 | 13.51
303.15 K, x1 = 0.5 | 3.18 | 71.2
303.15 K, x1 = 0.7 | 2.61 | 490
303.15 K, x1 = 1 | 0.006 | 13600
308.15 K, x1 = 0.1 | 1.46 | –
308.15 K, x1 = 0.3 | 3.08 | –
308.15 K, x1 = 0.5 | 3.44 | –
308.15 K, x1 = 0.7 | 2.84 | –
308.15 K, x1 = 1 | 0.007 | –
313.15 K, x1 = 0.1 | 1.61 | 5.94
313.15 K, x1 = 0.3 | 3.31 | 10.76
313.15 K, x1 = 0.5 | 3.75 | 54.6
313.15 K, x1 = 0.7 | 3.19 | 446
313.15 K, x1 = 0.9 | 1.1 | 1159
313.15 K, x1 = 1 | 0.01 | 9100
318.15 K, x1 = 0.1 | 1.78 | –
318.15 K, x1 = 0.3 | 3.65 | –
318.15 K, x1 = 0.5 | 4.05 | –
318.15 K, x1 = 0.7 | 3.43 | –
318.15 K, x1 = 0.9 | 1.42 | –
318.15 K, x1 = 1 | 0.013 | –
323.15 K, x1 = 0.1 | 1.9 | 4.84
323.15 K, x1 = 0.3 | 3.9 | 8.81
323.15 K, x1 = 0.5 | 4.46 | 44.4
323.15 K, x1 = 0.7 | 3.82 | 400
323.15 K, x1 = 0.9 | 1.69 | 820
333.15 K, x1 = 0.1 | – | 4.82
333.15 K, x1 = 0.3 | – | 7.96
333.15 K, x1 = 0.7 | – | 396
333.15 K, x1 = 0.9 | – | 670
333.15 K, x1 = 1 | – | 2800
343.15 K, x1 = 0.1 | – | 4.57
343.15 K, x1 = 0.3 | – | 7.27
343.15 K, x1 = 0.5 | – | 37.75
343.15 K, x1 = 0.7 | – | 387
343.15 K, x1 = 0.9 | – | 610
353.15 K, x1 = 0.3 | – | 7.11
353.15 K, x1 = 0.7 | – | 385
353.15 K, x1 = 0.9 | – | 540
